Entries after “also recorded” stand apart in the source; their conditions may differ. No end group written: not given here. *: point of attachment. Biotin = O=C1N[C@H]2[C@H](CS[C@H]2CCCCC(=O)*)N1
System: VDnmAb
Experiment: Western blot of conditioned media containing VEGF-DΔNΔC variants probed with VDnmAb
Format: binding
Conditions: conditioned media of 293-F cells; in comparison to VEGF-DΔNΔC
Description: Site-directed mutagenesis. DNA encoding VEGF-DΔNΔC, a form of mature human VEGF-D tagged at the N-terminus with the FLAG octapeptide (FIG. 11; SEQ ID NO: 145), was subjected to site-directed mutagenesis by PCR to generate VEGF-DΔNΔC variants. Mutations were introduced by amplification with the following primers: N147Q with 5'-[…] NO: 146) and 5'-[…] with 5'-[…] NO: 148) and 5'-[…] with 5'-[…] NO: 150) and 5'-[…] with 5'-[…] NO: 152) and 5'-[…] with 5'-[…] NO: 154) and 5'-[…] with 5'-[…] NO: 156) and 5'-[…] with 5'-[…] NO: 158) and 5'-[…] NO: 159) (FIG. 12). The desired mutations, as well as the absence of any unwanted mutations, in the resulting DNA fragments were confirmed by nucleotide sequencing. Expression of VEGF-DΔNΔC variants. Plasmids containing DNA encoding VEGF-DΔNΔC or its variants were used for transient transfection of 293-F cells with the FreeStyle MAX 293 Expression System according to manufacturer's instructions (Invitrogen). Cells expressing each variant were cultured in serum-free medium, and 30 ml of conditioned media was collected 7 days post-transfection and used for analysis. Western Blot Analysis. Conditioned media containing different variants of VEGF-DΔNΔC were resolved by SDS-PAGE, transferred to nitrocellulose membrane, probed with M2 anti-FLAG or VDnmAb antibodies labeled with IRDye 800CW according to manufacturer's instructions (LI-COR), and detected with an Odyssey Infrared Imaging System (LI-COR).

Molecule | VDnmAb binding to VEGF-DΔNΔC variant in Western blot
E148D: VEGF-DΔNΔC variant with mutation E148D (protein) DYKDDDDKFYDIETLKVIDEEWQRTQCSPRETCVEVASELGKSTNTFFKPPCVNVFRCGGCCNDESLICMNTSTSYISKQLFEISVPLTSVPELVPVKVANHTGCKCLPTAPRHPYS | complete loss of VDnmAb binding
S150G: VEGF-DΔNΔC variant with mutation S150G (protein) DYKDDDDKFYDIETLKVIDEEWQRTQCSPRETCVEVASELGKSTNTFFKPPCVNVFRCGGCCNEEGLICMNTSTSYISKQLFEISVPLTSVPELVPVKVANHTGCKCLPTAPRHPYS | significantly affected VDnmAb binding; also recorded: significantly affected, but did not eliminate, binding
L151V: VEGF-DΔNΔC variant with mutation L151V (protein) DYKDDDDKFYDIETLKVIDEEWQRTQCSPRETCVEVASELGKSTNTFFKPPCVNVFRCGGCCNEESVICMNTSTSYISKQLFEISVPLTSVPELVPVKVANHTGCKCLPTAPRHPYS | dramatic decrease in the amount of VDnmAb bound; also recorded: significantly affected VDnmAb binding
S150T: VEGF-DΔNΔC variant with mutation S150T (protein) DYKDDDDKFYDIETLKVIDEEWQRTQCSPRETCVEVASELGKSTNTFFKPPCVNVFRCGGCCNEETLICMNTSTSYISKQLFEISVPLTSVPELVPVKVANHTGCKCLPTAPRHPYS | significant decrease in the amount of VDnmAb bound
N147Q: VEGF-DΔNΔC variant with mutation N147Q (protein) DYKDDDDKFYDIETLKVIDEEWQRTQCSPRETCVEVASELGKSTNTFFKPPCVNVFRCGGCCQEESLICMNTSTSYISKQLFEISVPLTSVPELVPVKVANHTGCKCLPTAPRHPYS | significant decrease in the amount of VDnmAb bound
E149D: VEGF-DΔNΔC variant with mutation E149D (protein) DYKDDDDKFYDIETLKVIDEEWQRTQCSPRETCVEVASELGKSTNTFFKPPCVNVFRCGGCCNEDSLICMNTSTSYISKQLFEISVPLTSVPELVPVKVANHTGCKCLPTAPRHPYS | dramatic decrease in the amount of VDnmAb bound

System: VEGF-D neutralizing monoclonal antibody mAb 4A5 (VDnmAb)
Experiment: ELISA of biotinylated synthetic peptides on streptavidin plates for VDnmAb binding
Conditions: 2nd peptide library; 10 pmol peptide; VDnmAb 2 μg/ml; signal more than two-fold greater than background considered positive
Description: Peptides. A series of synthetic 15-mer peptides (peptides 1 to 35, SEQ ID NOs: 4 to 38 in FIG. 4B, which overlap each other by 12 amino acids) were synthesized (Mimotopes Pty Ltd, Melbourne, Australia). The peptides encompassed the VHD of human VEGF-D (SEQ ID NO: 3, FIG. 4A). Peptide 36 (SEQ ID NO: 39) represented an artificial sequence including a FLAG tag as a positive control for a commercial anti-FLAG mAb (M2; Sigma) that was used as control for non-specific binding to peptides 1 to 35 (SEQ ID NOs: 4 to 38). Biotin was included at the N-terminal of each peptide during synthesis, except that peptide 1 (SEQ ID NO: 4, representing the N-terminal of the VHD) has biotin at the C-terminal. The four-amino acid linker “SGSG” was introduced between the N-terminal of each peptide sequence and biotin to provide more flexibility to peptides after immobilization on streptavidin plates, except peptide 1 (SEQ ID NO: 4) that included the C-terminal linker “GSG”.
ELISA. Reacti-Bind streptavidin high-binding-capacity coated plates (Pierce) were coated with 10 pmol of each peptide in PBS, blocked with 5% milk in PBS-0.1% Tween 20, and incubated with 100 μl of VEGF-D neutralizing monoclonal antibody mAb 4A5 (referred to herein as VDnmAb) or M2 at 2 μg/ml for 1 h at room temperature. Bound mAb was detected with goat anti-mouse IgG coupled with HRP. ABTS was used as the substrate, and the absorbance was read at 405 nm in a multiwell plate reader.
In this 2nd peptide library, biotin was included at the N-terminal of each peptide, and the four-amino acid linker “SGSG” was introduced between each peptide sequence and the biotin residue to provide more flexibility to peptides after immobilization on streptavidin plates. ELISA-based analysis of the 2nd peptide library was carried out as for the 1st peptide library.
Peptide 67 (SEQ ID NO: 141, the same as peptide 36, SEQ ID NO: 39 from the 1st library) and peptide 68 (SEQ ID NO: 142), both containing the FLAG tag, were used as controls. In this 3rd peptide library, biotin was included at the N-terminal of each peptide except peptides 6, 12 and 14 (SEQ ID NOs: 80, 86 and 88) which have C-terminal biotin residues. To provide more flexibility to peptides after immobilization on streptavidin plates, an amino acid linker was introduced between biotin residues and the peptide sequence: “SGSG” for N-terminal biotin; “SGS” for C-terminal biotin. ELISA-based analysis of the 3rd peptide library was carried out as for the 1st peptide library, described in Example 1.

VDnmAb binding to peptide (ELISA signal, absorbance at 405 nm) | Molecule
more effect | peptide 25 (SEQ ID NO: 64): 2nd library: mutation of two of the cysteine residues to serine (SGSGVNVFRCGGSSNEESL)
more effect | peptide 26 (SEQ ID NO: 65): 2nd library: mutation of two of the cysteine residues to serine (SGSGVNVFRSGGSCNEESL)
more effect | peptide 27 (SEQ ID NO: 66): 2nd library: mutation of two of the cysteine residues to serine (SGSGVNVFRSGGCSNEESL)
significant loss of antibody binding | peptide 28 (SEQ ID NO: 67): 2nd library: mutation of all three cysteine residues to serine (SGSGVNVFRSGGSSNEESL)

Molecule | VDnmAb binding to peptide (ELISA signal, absorbance at 405 nm)
peptide 23 (SEQ ID NO: 62): 2nd library: single mutation of cysteine in the binding region, C145S (SGSGVNVFRCGGSCNEESL) | very minor or no effect on VDnmAb binding
peptide 24 (SEQ ID NO: 63): 2nd library: single mutation of cysteine in the binding region, C142S (SGSGVNVFRSGGCCNEESL) | very minor or no effect on VDnmAb binding

Same assay, conditions: 3rd peptide library; 10 pmol peptide; VDnmAb 2 μg/ml; signal more than two-fold over background considered positive

Molecule | VDnmAb binding to peptide (ELISA signal, absorbance at 405 nm)
peptide 22 (SEQ ID NO: 96): 3rd library: deletion of R141 (SGSGVFCGGCCNEESL) | little or no effect on VDnmAb binding
peptide 23 (SEQ ID NO: 97): 3rd library: mutation N147Q (SGSGVFRCGGCCQEESL) | loss, even complete loss, of VDnmAb binding
peptide 24 (SEQ ID NO: 98): 3rd library: mutation N147A (SGSGVFRCGGCCAEESL) | loss, even complete loss, of VDnmAb binding
peptide 25 (SEQ ID NO: 99): 3rd library: variant with deletion of one of N147, E148, E149, S150 (SGSGVFRCGGCCEESL) | loss of VDnmAb binding
peptide 26 (SEQ ID NO: 100): 3rd library: mutation E148D (SGSGVFRCGGCCNDESL) | loss, even complete loss, of VDnmAb binding
peptide 27 (SEQ ID NO: 101): 3rd library: mutation E148A (SGSGVFRCGGCCNAESL) | loss, even complete loss, of VDnmAb binding
peptide 28 (SEQ ID NO: 102): 3rd library: variant with deletion of one of N147, E148, E149, S150 (SGSGVFRCGGCCNESL) | loss of VDnmAb binding
peptide 29 (SEQ ID NO: 103): 3rd library: mutation E149D (SGSGVFRCGGCCNEDSL) | loss, even complete loss, of VDnmAb binding
peptide 30 (SEQ ID NO: 104): 3rd library: mutation E149A (SGSGVFRCGGCCNEASL) | loss, even complete loss, of VDnmAb binding
peptide 31 (SEQ ID NO: 105): 3rd library: double mutation E148D/E149D (SGSGVFRCGGCCNDDSL) | loss, even complete loss, of VDnmAb binding
peptide 32 (SEQ ID NO: 106): 3rd library: double mutation E148A/E149A (SGSGVFRCGGCCNAASL) | loss, even complete loss, of VDnmAb binding
peptide 33 (SEQ ID NO: 107): 3rd library: variant with deletion of one of N147, E148, E149, S150 (SGSGVFRCGGCCNSL) | loss of VDnmAb binding
peptide 58 (SEQ ID NO: 132): 3rd library: deletion of most of the cysteine and glycine residues at positions 142 to 146 (Biotin-SGSGNVFNEESL) | loss, but not complete loss, of binding
peptide 59 (SEQ ID NO: 133): 3rd library: simultaneous changes of most of residues 142 to 146 to alanine (SGSGNVFAAGAAANEESL) | loss, but not complete loss, of binding
